Assay results taken from patent US20240336638A1, “IMIDAZOLE COMPOUND, AND INTERMEDIATE AND APPLICATION THEREOF” (priority 2021, published 2024).
Read-outs that look alike come from different tables or passages of the source.

How the values were obtained:
[1] = Blood-brain barrier (BBB) study in SD rats after single IV and PO administration, brain; assay type: in vivo; settings: for Cmax / Tmax / half-life / MRT last / MRT inf: Sprague-Dawley (SD); for MRT last: read-out: MRT(0−t); for MRT inf: read-out: MRT(0−∞); for T1/2 and AUC(0-∞) in the brain tissue: compared to Ozagrel
Procedure: Effect Example 3: Pharmacokinetic and blood-brain barrier (BBB) studies of compounds after single intravenous (IV) and oral (PO) administration in SD rats
(§1) The experimental method of administration by gavage injection in rats: SD rats weighing 180 to 220 g were fasted for 12 hours prior to the experiment, with free access to water. After administration, food and water were withheld for 4 hours. After this 4-hour period, the rats were allowed free access to water, and food was provided after 8 hours. The drugs were administered at a set dose. N=3, blood samples were taken before administration, and 5 minutes, 0.25 hours, 0.5 hours, 0.75 hours, 1 hour, 2 hours, 4 hours, 8 hours, and 24 hours after administration, respectively, and placed into sodium heparin anticoagulant tubes. The tubes were centrifuged for 1 hour at 4° C. and at 8000 rpm for 5 minutes, and the plasma was then separated and stored in centrifuge tubes at −70° C. for analysis.
as §1, with “of intravenous” for “of”, “to” for “by gavage injection in”
The plasma concentration-time data were processed using the Phoenix® WinNonlin® 8.0 program to calculate pharmacokinetic parameters.
Among them, Cmax and Tmax are measured values, the elimination rate constant k of the tail section of the C-t curve is obtained from the linear regression of LnC-t, and the value of AUC0-4 is calculated by the trapezoidal area method, and the area under the curve from 0 to ∞ time is AUC=AUC0-4+Ct/k.

MCAO/R rats = experiment: Therapeutic administration (i.v.) in middle cerebral artery occlusion/reperfusion (MCAO/R) rats; assay type: in vivo, rat; settings: for Bleeding time / Brain water content (%) / Cerebral infarction rate (%) / Clotting time / Neurological function score: once a day for 3 days, mean ± SD, n = 8; for Neurological function score: modified Bederson score
Procedure: Male SD rats weighing 250 to 300 g were taken, and the rats in each group fasted for 12 hours before modeling, while water was not restricted. According to the method of Longa et al.^[1], a rat model of MCAO/R was established by occluding the blood flow of internal carotid artery using the thread embolization method. The rats were anesthetized with 3% chloral hydrate (300 mg/kg, 1 mL/100 g body weight) through intraperitoneal injection and fixed in the supine position on the operating table. A midline incision was made in the neck, and the right common carotid artery was isolated using forceps and threaded for later use. The external and internal carotid arteries were isolated from the bifurcation of the common carotid artery. A single thread was threaded through the internal carotid artery, and two threads were threaded through the external carotid artery. Both distal and proximal ends were ligated, and the middle part of the ligation site was cut using ophthalmic scissors. The proximal main trunk of the external carotid artery was isolated and reserved for later use. The prepared cotton thread was used to half-ligate the common carotid artery (tying a slipknot), and the thread prepared for the internal carotid artery was tightened with hemostatic forceps, temporarily occluding the blood flow of the internal carotid artery. A small incision at the proximal main trunk of the external carotid artery was made using ophthalmic scissors, and then, the fishing line was held with straight forceps, inserted from this incision, and slowly advanced through the isolated proximal main trunk of the external carotid artery towards the intracranial direction of the internal carotid artery. The advancement was stopped at a predetermined position, and then the thread of the internal carotid artery that was tightened with the hemostatic forceps was loosened. […] Another thread was threaded and tightened around the proximal main trunk of the external carotid artery and the fishing line that had already been inserted into the predetermined position. The half-ligated thread on the common carotid artery was then loosened, and the skin was subsequently sutured. After 2 hours of ischemia, a small section of the fishing line was pulled out. […] After rats in the blank control group were anesthetized, only the bifurcation of the internal and external carotid arteries was exposed without the occlusion of the MCA.
Successfully modeled rats (neurological function score of 3 after reperfusion) were taken and divided into 20 groups (8 rats for each) according to the random number table method. The groups were divided into a model control group, three dose groups (high, 12 mg/kg, 2.4 mg/mL; medium, 6 mg/kg, 1.2 mg/mL; low, 3 mg/kg, 0.6 mg/mL) for each of the six test compounds, and a positive drug Ozagrel group (6 mg/kg, 1.2 mg/mL), respectively. Both blank and model control groups were administered equal volumes of mixed solvents, and the rats in each group were administered by tail vein injection (i.v.) 2 hours after reperfusion, once a day for 3 consecutive days, with a volume of 0.5 mL/100 g body weight.
Ten minutes after the last administration, the neurological function of the animals was graded according to the modified Bederson scoring method. The standard is as follows[2]: • 0 point: no neurological symptoms; • 1 point: when the rat is suspended by lifting its tail, the forelimb on the surgical side of the rat was flexed and pressed against the chest wall; • 2 points: on a smooth plane, when the rat is pushed from the surgical side to the opposite side, the resistance is less than when it is moved to the same side; • 3 points: the animal moves around or in circles when moving freely; • 4 points: flaccid paralysis, no spontaneous movement of limbs.
After Bederson scoring, the rats were executed by cervical dislocation, and the whole brain was removed and weighed. After weighing, the whole brain was placed in a −20° C. refrigerator for 20 minutes. […]

[2] = medium dose 6 mg/kg i.v. (Ozagrel group 6 mg/kg)

Row | Compound | Cmax ([1]; rat brain, IV 1 mg/kg) [ng/g] | Tmax ([1]; rat brain, IV 1 mg/kg) [h] | half-life ([1]; rat brain, IV 1 mg/kg) [h] | MRT last ([1]; rat brain, IV 1 mg/kg) [h] | MRT inf ([1]; rat brain, IV 1 mg/kg) [h] | Cmax ([1]; rat brain, PO 6 mg/kg) [ng/g] | Tmax ([1]; rat brain, PO 6 mg/kg) [h] | half-life ([1]; rat brain, PO 6 mg/kg) [h] | MRT last ([1]; rat brain, PO 6 mg/kg) [h] | MRT inf ([1]; rat brain, PO 6 mg/kg) [h] | T1/2 and AUC(0-∞) in the brain tissue ([1]; intravenously at 1 mg/kg) | T1/2 and AUC(0-∞) in the brain tissue ([1]; orally at 6 mg/kg) | AUC(0−t) ([1]; rat brain, IV 1 mg/kg) [ng·h/g] | AUC(0−∞) ([1]; rat brain, IV 1 mg/kg) [ng·h/g] | AUC(0−t) ([1]; rat brain, PO 6 mg/kg) [ng·h/g] | Bleeding time (MCAO/R rats; high dose 12 mg/kg i.v.) [s] | Brain water content (%) (MCAO/R rats; high dose 12 mg/kg i.v.) | Cerebral infarction rate (%) (MCAO/R rats; high dose 12 mg/kg i.v.) | Clotting time (MCAO/R rats; high dose 12 mg/kg i.v.) [s] | Neurological function score (MCAO/R rats; high dose 12 mg/kg i.v.) | also measured
1 | O=C(O)[C@@H]1C[C@H]1c1ccc(Cn2cnc(Cl)c2)c(Cl)c1 [Compound 11, (1R,2R)-2-(3-Chloro-4-((4-chloro-1H-imidazol-1-yl)methyl)phenyl)cyclopropane-1-carboxylic acid] | 57.5 | 1 | 19.5 | 9.49 | 27.4 | 385 | 4 | 19.7 | 9.94 | 28.5 | significantly increased | significantly increased | 855.25 | 1475.23 | 7014.55 | 319.25 ± 49.38 | 80.58 ± 0.77 | 13.53 | 152.81 ± 29.69 | 1.25 ± 0.46 | AUC(0−∞) (h*ng/g) ([1]; rat brain, PO 6 mg/kg): 12,439.74 h*ng/g; neurological deficits in rats (MCAO/R rats; high dose): can significantly reduce; improving the neurological function scores of the rats (MCAO/R rats; high dose, comparison among test drugs): more advantageous; reducing the infarct area (smallest mean infarct rate) (MCAO/R rats; high doses, comparison among test drugs): more advantageous; cerebral edema in rats (MCAO/R rats; low dose): did not significantly improve; Bleeding time (MCAO/R rats; low dose 3 mg/kg i.v.): 307.63 ± 64.59 s; Brain water content (%) (MCAO/R rats; low dose 3 mg/kg i.v.): 82.04 ± 1.91 %; Cerebral infarction rate (%) (MCAO/R rats; low dose 3 mg/kg i.v.): 28.07 ± 4.88%; Clotting time (MCAO/R rats; low dose 3 mg/kg i.v.): 138.38 ± 27.34 s; Neurological function score (MCAO/R rats; low dose 3 mg/kg i.v.): 2.25 ± 0.46; Bleeding time (MCAO/R rats; [2]): 279.75 ± 37.97 s; Brain water content (%) (MCAO/R rats; [2]): 80.33 ± 1.65%; Cerebral infarction rate (%) (MCAO/R rats; [2]): 19.96%; Clotting time (MCAO/R rats; [2]): 136.63 ± 9.80 s; Neurological function score (MCAO/R rats; [2]): 2.00 ± 0.53
2 | O=C(O)[C@@H]1C[C@H]1c1ccc(Cn2ccnc2)c(F)c1 [Compound 15, (1R,2R)-2-(4-((1H-Imidazol-1-yl)methyl)-3-fluorophenyl)cyclopropane-1-carboxylic acid] | 41.2 | 0.08 | 2.2 | 0.82 | 3.05 | 199 | 1 | 1.7 | 2.56 | 2.91 | significantly increased | significantly increased | 33.91 | 69.74 | 815.87 | 289.63 ± 60.00 | 80.84 ± 1.40 | 15.57 | 163.13 ± 20.06 | 1.50 ± 0.53 | AUC(0−∞) ([1]; rat brain, PO 6 mg/kg): 853.63 ng·h/g; Bleeding time (MCAO/R rats; low dose 3 mg/kg i.v.): 281.38 ± 61.33 s; Brain water content (%) (MCAO/R rats; low dose 3 mg/kg i.v.): 81.71 ± 1.64%; Cerebral infarction rate (%) (MCAO/R rats; low dose 3 mg/kg i.v.): 29.98 ± 5.52%; Clotting time (MCAO/R rats; low dose 3 mg/kg i.v.): 155.38 ± 41.85 s; Neurological function score (MCAO/R rats; low dose 3 mg/kg i.v.): 2.38 ± 0.74; Bleeding time (MCAO/R rats; [2]): 304.88 ± 43.01 s; Brain water content (%) (MCAO/R rats; [2]): 81.19 ± 1.32%; Cerebral infarction rate (%) (MCAO/R rats; [2]): 21.57%; Clotting time (MCAO/R rats; [2]): 156.50 ± 31.15 s; Neurological function score (MCAO/R rats; [2]): 1.75 ± 0.71
3 | O=C(O)[C@@H]1C[C@H]1c1ccc(Cn2cnc(F)c2)cc1F [Compound 17, (1R,2R)-2-(2-Fluoro-4-((4-fluoro-1H-imidazol-1-yl)methyl)phenyl)cyclopropane-1-carboxylic acid] | 84.1 | 0.08 | 3.72 | 2.53 | 4.7 | 323 | 2 | 2.82 | 4.53 | 4.6 | significantly increased | significantly increased | 169.74 | 212.39 | 2329.55 | 338.38 | 80.34 ± 1.65 | 17.37 | 163.00 ± 29.03 | 1.63 ± 0.74 | AUC(0−∞) ([1]; rat brain, PO 6 mg/kg): 2336.46 ng·h/g; cerebral edema in rats (MCAO/R rats; low and medium doses): did not significantly improve; Bleeding time (MCAO/R rats; low dose 3 mg/kg i.v.): 290.75 ± 79.23 s; Brain water content (%) (MCAO/R rats; low dose 3 mg/kg i.v.): 82.47 ± 3.03 %; Cerebral infarction rate (%) (MCAO/R rats; low dose 3 mg/kg i.v.): 30.61 ± 5.72%; Clotting time (MCAO/R rats; low dose 3 mg/kg i.v.): 141.25 ± 28.04 s; Neurological function score (MCAO/R rats; low dose 3 mg/kg i.v.): 2.25 ± 0.71; Bleeding time (MCAO/R rats; [2]): 307.50 ± 64.66 s; Brain water content (%) (MCAO/R rats; [2]): 81.96 ± 2.16 %; Cerebral infarction rate (%) (MCAO/R rats; [2]): 22.75%; Clotting time (MCAO/R rats; [2]): 155.00 ± 29.81 s; Neurological function score (MCAO/R rats; [2]): 1.88 ± 0.83
4 | O=C(O)[C@@H]1C[C@H]1c1ccc(Cn2cnc(F)c2)c(Cl)c1 [Compound 18, (1R,2R)-2-(3-Chloro-4-((4-fluoro-1H-imidazol-1-yl)methyl)phenyl)cyclopropane-1-carboxylic acid] | 75.5 | 0.08 | 8.7 | 7.19 | 11.5 | 460 | 1 | 8.36 | 7.84 | 11.7 | significantly increased | significantly increased | 633.23 | 741.29 | 6454.78 | 330.25 ± 50.14 | 80.54 ± 1.62 | 17.78 | 147.25 ± 13.30 | 1.63 ± 0.52 | AUC(0−∞) ([1]; rat brain, PO 6 mg/kg): 7477.48 ng·h/g; Bleeding time (MCAO/R rats; low dose 3 mg/kg i.v.): 267.38 ± 50.19 s; Brain water content (%) (MCAO/R rats; low dose 3 mg/kg i.v.): 80.64 ± 2.21%; Cerebral infarction rate (%) (MCAO/R rats; low dose 3 mg/kg i.v.): 26.58 ± 4.57%; Clotting time (MCAO/R rats; low dose 3 mg/kg i.v.): 152.38 ± 28.67 s; Neurological function score (MCAO/R rats; low dose 3 mg/kg i.v.): 2.25 ± 0.46; Bleeding time (MCAO/R rats; [2]): 271.63 ± 40.55 s; Brain water content (%) (MCAO/R rats; [2]): 80.95 ± 1.79%; Cerebral infarction rate (%) (MCAO/R rats; [2]): 20.75%; Clotting time (MCAO/R rats; [2]): 158.19 ± 19.62 s; Neurological function score (MCAO/R rats; [2]): 1.88 ± 0.83
